Paper PMC10439230 (Scientific Reports, 2023)

Tests used:
[1] = system: MRC-5 normal embryonic lung fibroblast cell line; experiment: Cytotoxic activity assay (MTT), normal cells; assay type: cell-based; conditions: Homo sapiens, MRC5, 48 h exposure, read-out: Cell lines, IC50 (μM) MRC-5
Excerpt: (§1) The synthetic compounds were screened for their cytotoxic activity using standard MTT or XTT methods[30] against a panel of nine human cancer cell lines and one normal cell line, including MDA-MB-231 (triple-negative breast cancer), T-47D (hormone-dependent breast cancer), HepG2 (hepatocellular carcinoma), A549 (lung adenocarcinoma), H69AR (multidrug-resistant small cell lung carcinoma), HuCCA-1 (cholangiocarcinoma derived from a patient), HeLa (cervical carcinoma), and two leukemia cell lines, HL-60 (acute promyelocytic leukemia) and MOLT-3 (T cell acute lymphoblastic leukemia). MRC-5 normal embryonic lung fibroblast cell line was used to represent normal cells. Chemotherapeutic drugs, doxorubicin and etoposide, were used as positive controls.
(§2) The cells were seeded into 96-well plates (100 µL for adherent cells and 75 µL for suspended cells) at a density of 5000–20,000 cells per well, depending on their growth rates. Adherent and suspended cells were then allowed to grow at 37 °C with 95% humidity and 5% CO2 for 24 h and 30 min, respectively. The cytotoxicity assay was initiated by adding an equal volume of cell culture medium containing tested compound at predetermined concentrations. Following 48 h of exposure, cell viability was determined using MTT assay for adherent cells[51],[52]or XTT assay for suspeended cells. Briefly, for adherent cells, 100 µL of the MTT reagent was added to each well, and the microtiter plates were further incubated for 2.5–4 h. The medium was subsequently replaced with 100 µL of DMSO to dissolve the purple formazan before the absorbance at 550 nm was measured using a microplate reader (a SpectraMax Plus 384) with a reference wavelength of 650 nm. For suspended cells, 75 µL of the XTT reagent was added to each well, and the cells were further incubated for 4 h. Afterwards, the absorbance of orange formazan at 492 nm was measured with a reference wavelength of 690 nm using a microplate reader.

[2] = system: HepG2 (hepatocellular carcinoma); experiment: Cytotoxic activity assay (MTT); assay type: cell-based, human; conditions: for IC50: Homo sapiens, HepG2, 48 h exposure, MTT, read-out: Cell lines, IC50 (μM) HepG2; for Selectivity Index (SI) values HepG2: SI = IC50 normal cell (MRC-5)/ IC50 cancer cell
Excerpt: as §1, §2

[3] = system: MDA-MB-231 (triple-negative breast cancer); experiment: Cytotoxic activity assay (MTT); assay type: cell-based, human; conditions: for IC50: Homo sapiens, MDA-MB-231, 48 h exposure, MTT, read-out: Cell lines, IC50 (μM) MDA-MB-231; for Selectivity Index (SI) values MDA-MB-231: SI = IC50 normal cell (MRC-5)/ IC50 cancer cell
Excerpt: as §1, §2

[4] = system: H69AR (multidrug-resistant small cell lung carcinoma); experiment: Cytotoxic activity assay (MTT); assay type: cell-based, human; conditions: for IC50: Homo sapiens, H69AR, 48 h exposure, MTT, read-out: Cell lines, IC50 (μM) H69AR; for Selectivity Index (SI) values H69AR: SI = IC50 normal cell (MRC-5)/ IC50 cancer cell
Excerpt: as §1, §2

[5] = system: HeLa (cervical carcinoma); experiment: Cytotoxic activity assay (MTT); assay type: cell-based, human; conditions: for IC50: Homo sapiens, 48 h exposure, MTT, read-out: Cell lines, IC50 (μM) HeLa; for Selectivity Index (SI) values HeLa: SI = IC50 normal cell (MRC-5)/ IC50 cancer cell
Excerpt: as §1, §2

[6] = system: HuCCA-1 (cholangiocarcinoma derived from a patient); experiment: Cytotoxic activity assay (MTT); assay type: cell-based, human; conditions: for IC50: Homo sapiens, HuCC-A1, 48 h exposure, MTT, read-out: Cell lines, IC50 (μM) HuCCA-1; for Selectivity Index (SI) values HuCCA-1: SI = IC50 normal cell (MRC-5)/ IC50 cancer cell
Excerpt: as §1, §2

[7] = system: T-47D (hormone-dependent breast cancer); experiment: Cytotoxic activity assay (MTT); assay type: cell-based, human; conditions: for IC50: Homo sapiens, T47D, 48 h exposure, MTT, read-out: Cell lines, IC50 (μM) T47-D; for Selectivity Index (SI) values T47-D: SI = IC50 normal cell (MRC-5)/ IC50 cancer cell
Excerpt: as §1, §2

[8] = system: A549 (lung adenocarcinoma); experiment: Cytotoxic activity assay (MTT); assay type: cell-based, human; conditions: for IC50: Homo sapiens, A549, 48 h exposure, MTT, read-out: Cell lines, IC50 (μM) A549; for Selectivity Index (SI) values A549: SI = IC50 normal cell (MRC-5)/ IC50 cancer cell
Excerpt: as §1, §2

[9] = system: MOLT-3 (T cell acute lymphoblastic leukemia); experiment: Cytotoxic activity assay (XTT); assay type: cell-based, human; conditions: for IC50: Homo sapiens, MOLT-3, 48 h exposure, XTT, read-out: Cell lines, IC50 (μM) MOLT-3; for Selectivity Index (SI) values MOLT-3: SI = IC50 normal cell (MRC-5)/ IC50 cancer cell
Excerpt: as §1, §2

[10] = system: HL-60 (acute promyelocytic leukemia); experiment: Cytotoxic activity assay (XTT); assay type: cell-based, human; conditions: for IC50: Homo sapiens, HL-60, 48 h exposure, XTT, read-out: Cell lines, IC50 (μM) HL-60; for Selectivity Index (SI) values HL-60: SI = IC50 normal cell (MRC-5)/ IC50 cancer cell
Excerpt: as §1, §2

C=C1CCC2C(C)(C)CCC[C@]2(C)[C@H]1CC/C(C)=C/C=O (stereo partly drawn) [Compound 3, (E)-3-methyl-5-((1S,8aS)-5,5,8a-trimethyl-2-methylenedecahydronaphthalen-1-yl)pent-2-enal]
IC50 [1]: 125.8 ± 0.46 µM | IC50 [2]: 122.2 ± 1.03 µM | Selectivity Index (SI) values HepG2 [2]: 1.0 | IC50 [3]: 64.1 ± 1.8 µM | Selectivity Index (SI) values MDA-MB-231 [3]: 2.0 | IC50 [4]: > 120 µM | Selectivity Index (SI) values H69AR [4]: 0.7 | IC50 [5]: 77.4 ± 1.47 µM | Selectivity Index (SI) values HeLa [5]: 1.6 | IC50 [6]: 131.4 ± 1.14 µM | Selectivity Index (SI) values HuCCA-1 [6]: 1.0 | IC50 [7]: 93.9 ± 1.54 µM | Selectivity Index (SI) values T47-D [7]: 1.3 | IC50 [8]: 142 ± 2.69 µM | Selectivity Index (SI) values A549 [8]: 0.9 | IC50 [9]: 37.7 ± 3.2 µM | Selectivity Index (SI) values MOLT-3 [9]: 3.3 | IC50 [10]: 56.4 ± 1.37 µM | Selectivity Index (SI) values HL-60 [10]: 2.2

C=C1CCC2C(C)(C)CCCC2(C)C1CCC(C)=CCO (stereo not shown) [Compound 2, anticopalol]
IC50 [1]: 54.15 ± 0.31 µM | IC50 [2]: 52.33 ± 0.34 µM | Selectivity Index (SI) values HepG2 [2]: 1.0 | IC50 [3]: 31.77 ± 0.13 µM | Selectivity Index (SI) values MDA-MB-231 [3]: 1.7 | IC50 [4]: 111.9 ± 0.71 µM | Selectivity Index (SI) values H69AR [4]: 0.5 | IC50 [5]: 37.49 ± 0.04 µM | Selectivity Index (SI) values HeLa [5]: 1.4 | IC50 [6]: 51.5 ± 0.24 µM | Selectivity Index (SI) values HuCCA-1 [6]: 1.1 | IC50 [7]: 52.33 ± 0.34 µM | Selectivity Index (SI) values T47-D [7]: 1.0 | IC50 [8]: 60.52 ± 0.22 µM | Selectivity Index (SI) values A549 [8]: 0.9 | IC50 [9]: 32.2 ± 1.44 µM | Selectivity Index (SI) values MOLT-3 [9]: 1.7 | IC50 [10]: 27.7 ± 0.31 µM | Selectivity Index (SI) values HL-60 [10]: 2.0

C=C1CC[C@H]2C(C)(C)CCC[C@]2(C)[C@H]1CC/C(C)=C/C(=O)NCc1ccccc1 [Compound 4f, (E)-N-Benzyl-3-methyl-5-((1S,4aS,8aS)-5,5,8a-trimethyl-2-methylene-decahydronaphthalen-1-yl)pent-2-enamide]
IC50 [1]: > 120 µM | IC50 [2]: > 120 µM | Selectivity Index (SI) values HepG2 [2]: 1.0 | IC50 [3]: > 120 µM | Selectivity Index (SI) values MDA-MB-231 [3]: 1.0 | IC50 [4]: > 120 µM | Selectivity Index (SI) values H69AR [4]: 1.0 | IC50 [5]: > 120 µM | Selectivity Index (SI) values HeLa [5]: 1.0 | IC50 [6]: > 120 µM | Selectivity Index (SI) values HuCCA-1 [6]: 1.0 | IC50 [7]: > 120 µM | Selectivity Index (SI) values T47-D [7]: 1.0 | IC50 [8]: > 120 µM | Selectivity Index (SI) values A549 [8]: 1.0 | IC50 [9]: > 120 µM | Selectivity Index (SI) values MOLT-3 [9]: 1.0 | IC50 [10]: 87.3 ± 8.47 µM | Selectivity Index (SI) values HL-60 [10]: 1.5

C=C1CC[C@H]2C(C)(C)CCC[C@]2(C)[C@H]1CC/C(C)=C/C(=O)NCc1ccccn1 [Compound 4g, (E)-3-Methyl-N-(pyridin-2-ylmethyl)-5-((1S,4aS,8aS)-5,5,8a-trimethyl-2-methylenedecahydronaphthalen-1-yl)pent-2-enamide]
IC50 [1]: 44.8 ± 1.62 µM | IC50 [2]: 41.7 ± 1.46 µM | Selectivity Index (SI) values HepG2 [2]: 1.1 | IC50 [3]: 35.1 ± 0.98 µM | Selectivity Index (SI) values MDA-MB-231 [3]: 1.3 | IC50 [4]: 92.7 ± 1.18 µM | Selectivity Index (SI) values H69AR [4]: 0.5 | IC50 [5]: 46.7 ± 1.03 µM | Selectivity Index (SI) values HeLa [5]: 1.0 | IC50 [6]: 46.2 ± 0.6 µM | Selectivity Index (SI) values HuCCA-1 [6]: 1.0 | IC50 [7]: 55.1 ± 2.8 µM | Selectivity Index (SI) values T47-D [7]: 0.8 | IC50 [8]: 38.2 ± 0.49 µM | Selectivity Index (SI) values A549 [8]: 1.2 | IC50 [9]: 20.9 ± 0.99 µM | Selectivity Index (SI) values MOLT-3 [9]: 2.1 | IC50 [10]: 22.7 ± 0.36 µM | Selectivity Index (SI) values HL-60 [10]: 2.0
